Here are results for 90 molecules from PubChem BioAssay AID463199 (Broad Institute, 2010).

Molecules are shown by their SMILES. The source made the active and inactive calls.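 The calls were made as follows: active = AC50, the dose giving half-maximal effect, exceeds a fixed cutoff for a compound that rescues yeast growth under heat; inactive = the rest, inconclusive results apart.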

The test system of this assay is S. cerevisiae Burl-1 ts mutant growth, BacTiter-Glo, 38.5C 24 h. Description: restored growth of temperature-sensitive Burl-1 yeast – whole organism, S. cerevisiae, Burl-1 ts mutant, luminescence, counter-screen for SUMOylation pathway inhibitor project, dose response (AID 463199). Background: Counterscreens check selectivity or assay interference.
For orientation: AC50 means the concentration giving half of the maximal activity seen. In the case of `Cc1ccc(C)c(C(C)NC(=O)c2ccncc2)c1` (stereo not given), the AC50 was > 42 µM (inactive).
The figure for `O=C(c1ccc(-c2ccccc2)cc1)C1CCCN(Cc2ccncc2)C1` (stereo not given) is > 42 µM (inactive); for `O=C(NCc1cccnc1)Nc1ccccc1` it is > 42 µM (inactive); for `c1ccc(-c2nc(NCc3ccco3)c3ccccc3n2)nc1` it is > 42 µM (inactive).
The figure for `COc1cc(OC)c(C(=O)N2CCN(c3ccccn3)CC2)cc1OC` is > 42 µM (inactive).
The figure for `COc1ccc(OC)c(NC(=O)CNC(=O)Cn2ccc3ccccc3c2=O)c1` is > 42 µM (inactive); for `Cc1c(N=Cc2cc(Br)cc(Br)c2O)cccc1C(=O)O` it is > 42 µM (inactive).
In the case of `Oc1c(Br)cc(Br)cc1C=Nc1ccc2[nH]ncc2c1`, the AC50 was > 42 µM (inactive).
In the case of `O=C(COC(=O)c1ccc([N+](=O)[O-])s1)c1ccc[nH]1`, the AC50 is > 42 µM (inactive).
Regarding `CCN(CC)CCNC(=O)CCn1c(=S)[nH]c2cc3c(cc2c1=O)OCO3`, the AC50 is > 42 µM (inactive).
The figure for `Cc1cc2nc(CCl)cc(=O)n2[nH]1` is > 42 µM (inactive); for `CC1CC(C)(C)N(C(=O)CN2C(=O)CCC2=O)c2ccccc21` (stereo not given) it is > 42 µM (inactive); for `CCOc1ccc(CN(C)C(C)C(=O)NCc2ccccc2)cc1` (stereo not given) it is > 42 µM (inactive).
For `O=C(CSc1nc2ccc(Cl)cc2[nH]1)NCc1ccco1` the value was > 42 µM (inactive); for `c1ccc(-c2cc3ccccc3cn2)cc1`, > 42 µM (inactive).
The figure for `O=C1CN(C(=O)c2ccccc2F)C(c2ccccc2)c2cc(Cl)ccc2N1` (stereo not given) is > 42 µM (inactive); for `C(=N\N1CCN(C2c3ccccc3-c3ccccc32)CC1)/c1ccncc1` it is > 42 µM (inactive); for `CCCCOCCCNS(=O)(=O)Cc1ccccc1` it is > 42 µM (inactive).
Consider `N#CCCN(C(=O)COC(=O)c1ccc(S(=O)(=O)Nc2ccccc2)cc1)c1ccccc1`, for which the AC50 was > 42 µM (inactive).
For `O=C(Nc1ccc2nc(-c3ccc4nc[nH]c4c3)[nH]c2c1)c1cccs1` the value was > 42 µM (inactive); for `O=S(=O)(NCC1CCCN(Cc2ccccc2O)C1)c1cccc2cccnc12` (stereo not given), > 42 µM (inactive).
As for `O=C1NC(=O)C(=Cc2ccc(N3CCOCC3)cc2)C(=O)N1`, the AC50 was > 42 µM (inactive).
The figure for `CC1(C(=O)Nc2cccc(-n3cnnn3)c2)Cc2ccccc2C(=O)O1` (stereo not given) is > 42 µM (inactive); for `O=C(OCC#CCSc1nnc(-c2ccccc2)o1)c1cc2ccccc2o1` it is > 42 µM (inactive); for `Cc1ccc(-n2c(SCC(=O)N(C)C3CCS(=O)(=O)C3)nc3ccccc3c2=O)cc1` (stereo not given) it is > 42 µM (inactive).
For `O=[N+]([O-])c1ccccc1CN1CC=C(c2ccc(F)cc2)CC1` the value was > 42 µM (inactive); for `CC12CC3(C)CC(C)(C1)CC(C(=O)NC(=S)N1CCCC1)(C2)C3`, > 42 µM (inactive); for `COc1ccc(CN(CC(=O)NCC2CCCO2)C(=O)CCC(=O)Nc2cc(C)on2)cc1` (stereo not given), > 42 µM (inactive).
`Oc1ccc(C2=CSC3=NCCN23)cc1O`: the AC50 is > 42 µM (inactive).
Regarding `Cc1ccc(-c2[nH]ncc2CNCCc2cnn(-c3ccccc3)c2)cc1C`, the AC50 is > 42 µM (inactive).
The figure for `CN(NC(=O)c1ccccc1F)c1nc(C(F)(F)F)nc2ccccc12` is > 42 µM (inactive); for `CC(=O)Cc1nsc(Nc2cccc(C)c2)n1` it is > 42 µM (inactive).
Take `CCOC(=O)CCN(c1ccccc1)S(=O)(=O)c1ccc(-c2ccc(=O)[nH]n2)s1`: the AC50 was > 42 µM (inactive).
The figure for `CC(NC(=O)c1cccs1)c1ccc(Br)cc1` (stereo not given) is > 42 µM (inactive); for `COc1ccc(NC(=O)CCCc2ccccc2)cc1OC` it is 9.43 µM; for `CCCNCc1cc(OCC)c(OCC(N)=O)cc1Br` it is > 42 µM (inactive).
The figure for `CCOc1ccc(-c2c(C(=O)N/N=C/c3ccncc3)nnn2-c2nonc2N)cc1` is > 42 µM (inactive); for `CC(C)(C)c1ccc(-c2nc(C=O)c3ccccn23)cc1` it is > 42 µM (inactive); for `CCOc1ccccc1CN1CCN(Cc2ccon2)CC1CCO` (stereo not given) it is > 42 µM (inactive).
In the case of `CCOC(=O)C1=Nc2ccccc2C1=[N+]=[N-]`, the AC50 was > 42 µM (inactive).
For `O=C(COc1cnc2ccccc2n1)NCCC1=CCCCC1` the value was > 42 µM (inactive); for `O=C(OCC(=O)N1CCN(c2ccccc2)CC1)c1nc(Cl)ccc1Cl`, > 42 µM (inactive); for `COc1ccc(Oc2c(C)oc3cc(OC(=O)N(C)C)ccc3c2=O)cc1`, > 42 µM (inactive).
As to `COc1cc(CN2CCN(c3ncccn3)CC2)cc(OC)c1`, the AC50 was > 42 µM (inactive).
For `CC(=O)OCC(OC(C)=O)C(OC(C)=O)C(OC(C)=O)C(=O)Nc1ccccc1` (stereo not given) the value was > 42 µM (inactive); for `O=C(c1ccco1)N1CCN(C(=O)C2Cc3ccccc3CN2S(=O)(=O)c2ccc(F)cc2)CC1` (stereo not given), > 42 µM (inactive); for `NC1=NC(=Nc2ccc(S(N)(=O)=O)cc2)c2ccccc21`, > 21 µM (inactive).
As for `COc1ccc(-c2c(C)nn3c(C)cc(C)nc23)cc1`, the AC50 is > 42 µM (inactive).
Turning to `COc1cc(C(=O)Oc2cccnc2)cc(OC)c1OC`, the AC50 is > 42 µM (inactive).
For `CN(C)CCOC(=O)CCc1ccccc1` the value was > 42 µM (inactive).
For `CCCN(CCC)C(=O)CSc1ncccc1C(=O)O` the value was > 42 µM (inactive); for `Cc1sc2nc(SCC(=O)NCCOCCO)n(C)c(=O)c2c1C`, > 42 µM (inactive); for `CC(C)Oc1ccc(CCC(=O)NNC(=O)c2ccccc2C(=O)O)cc1`, > 42 µM (inactive).
`COc1ccccc1-c1nnc(SCC(=O)NC2CCS(=O)(=O)C2)n1N` (stereo not given): the AC50 was > 42 µM (inactive).
The figure for `CCCOC(=O)c1c(-c2ccc(OC)cc2)oc2ccc(-c3ccc(OC)nc3)cc12` is > 42 µM (inactive).
The figure for `O=C(NC1CCCCC1)C(c1ccncc1)N(Cc1ccc2c(c1)OCO2)C(=O)C(F)(F)F` (stereo not given) is > 42 µM (inactive); for `CC(=O)Nc1ccc(-c2csc(NC(=O)C3CC(=O)N(c4ccc5c(c4)OCCO5)C3)n2)cc1` (stereo not given) it is > 42 µM (inactive); for `CCN(CC)c1ccc2c(C)c(CN3CCOCC3)c(=O)oc2c1` it is > 42 µM (inactive).
As for `CCOC(=O)C1(c2ccccc2)CCN(CCC(=O)Nc2ccccc2OC)CC1`, the AC50 was > 42 µM (inactive).
As for `O=C(O)c1cc(S(=O)(=O)Nc2ccc(OCc3ccccc3)cc2)ccc1Br`, the AC50 is > 42 µM (inactive).
In the case of `N#CCN(N=Nc1ccccc1)c1ccccc1`, the AC50 was > 42 µM (inactive).
Regarding `Cc1cccc(N2CN=c3s/c(=C\c4ccccn4)c(=O)n3C2)c1`, the AC50 is > 42 µM (inactive).
As for `CN(C)CCCN(Cc1ccccc1)C(=S)Nc1ccc(F)c(Cl)c1`, the AC50 was > 42 µM (inactive).
With `CCOC(=O)c1c(/N=C/C2C(=O)CCCC2=O)sc2c1CCCC2`, the AC50 is > 42 µM (inactive).
For `N=c1sccn1CC(=O)Nc1cccc(S(N)(=O)=O)c1` the value was > 42 µM (inactive); for `CCOc1ccc(NC(=O)CNc2ccc(C)cc2Cl)cc1`, > 42 µM (inactive).
With `COc1ccc(Cl)cc1C(=O)NCCc1ccc(S(=O)(=O)NC(=O)NC2CCCCC2)cc1`, the AC50 was > 42 µM (inactive).
Consider `O=C(c1ccc(COc2ccccc2Cl)o1)N1N=C(C(F)F)CC1(O)C(F)F` (stereo not given), for which the AC50 is > 42 µM (inactive).
As for `CC(=O)N1N=C(N)SC12CCCC2`, the AC50 was > 42 µM (inactive).
For `COC/C=C/C1=CC2=CC(=O)C(C)(OC(=O)c3cnc4ccccc4n3)C(=O)C2=CN1CCOC` (stereo not given), the AC50 is > 42 µM (inactive).
For `O=c1c2c(ncn1Cc1ccccc1)nc1n2CCC1` the value was > 42 µM (inactive).
For the molecule `O=C(c1cc2ccccc2o1)N1CCN(C/C=C/c2ccccc2)CC1`, the AC50 was > 42 µM (inactive).
Regarding `COc1cccc(CN(C)C(=O)C2CCC(=O)N(Cc3cccc(F)c3)C2)c1` (stereo not given), the AC50 is > 42 µM (inactive).
The figure for `CCOc1ccc(NC(=O)C2CC(=O)N3CCCN=C3S2)cc1` (stereo not given) is > 42 µM (inactive); for `COC(=O)N/N=C/c1ccc(-c2ccc(Cl)cc2Cl)o1` it is > 42 µM (inactive).
Consider `COc1ccc(NC(=O)CN(C)C(=O)/C=C/c2cn(-c3ccccc3)nc2-c2ccc(F)cc2)cc1`, for which the AC50 is > 42 µM (inactive).
Regarding `COc1ccc(CN2C(=O)c3c(c(C)n(C)c3C)C2C(=O)NC2CCC(C)CC2)cc1` (stereo not given), the AC50 is > 42 µM (inactive).
In the case of `CC1CCN(CCCOc2ccc(OCc3ccccc3)cc2)CC1`, the AC50 is > 42 µM (inactive).
The figure for `Cc1ccccc1NC1=NCCCS1` is > 42 µM (inactive); for `O=C(Nc1ccc(F)cc1)c1ccc(CSc2ccccc2)o1` it is > 42 µM (inactive).
In the case of `CCc1nnc(NC(=O)c2cccc(S(=O)(=O)N3CCN(c4ccccc4)CC3)c2)s1`, the AC50 was > 42 µM (inactive).
On to `CCOc1ccccc1C(=O)NCc1ccc2c(c1)OCO2`, for which the AC50 is > 42 µM (inactive).
For `CCCCCCCCCCOC(=O)Cn1c(COc2ccccc2OC)[n+](C)c2ccccc21` the value was > 42 µM (inactive); for `COC(=O)c1ccccc1NC(=O)CSc1nnnn1CC(=O)O`, > 42 µM (inactive).
For `CC(=O)c1ccc(Oc2cc(C)nc(N3CCOCC3)n2)cc1`, the AC50 is > 42 µM (inactive).
The figure for `Oc1c(Cl)cc(Cl)c(Cl)c1Cc1c(O)c(Cl)cc(Cl)c1Cl` is > 42 µM (inactive).
The figure for `Cc1cc(C)n(C(=O)c2ccccc2[N+](=O)[O-])n1` is > 42 µM (inactive); for `O=c1nc2ccc(Cl)cn2c2ccc(S(=O)(=O)N3CCOCC3)cc12` it is > 42 µM (inactive).
The figure for `Cc1ccc(N/N=C2/CCCNC2=O)cc1` is > 42 µM (inactive); for `COc1cc2c(cc1NC(=O)c1cccnc1)oc1ccccc12` it is > 42 µM (inactive).
